Assay: cn = amount concentration of the nth substance listed, in mol/dm3
Details: 303.15 K; 101 kPa; Liquid; 4510 conductivity meter; c1 = 0.001

## CC1=C(C(=O)O)N2C(=O)[C@@H](NC(=O)[C@H](N)c3ccc(O)cc3)[C@H]2SC1 [cefadroxil] + O
  electrical conductivity: 0.0001 S/m

— the NIST ThermoML archive (doi:10.1016/j.jct.2013.04.007)
